Assay results as given in ChEMBL document CHEMBL5344405, “Seleno-vs. thioether triazine derivatives in search for new anticancer agents overcoming multidrug resistance in lymphoma” (Eur J Med Chem, 2022).
Active and inactive are the calls of the source. No cut-off for these calls is given here.

Legend:
L5178Y [1] = experiment: Cytotoxicity against parental mouse L5178Y cells assessed as inhibition of cell growth incubated for 24 hrs by MTT assay; assay type: functional, cell-based
L5178Y [2] = experiment: Cytotoxicity against multidrug resistant mouse L5178Y cells expressing ABCB1 assessed as inhibition of cell growth incubated for 24 hrs by MTT assay; assay type: functional, cell-based
L5178Y [3] = experiment: Antiproliferative activity against parental mouse L5178Y cells assessed as inhibition of cell growth incubated for 72 hrs by MTT assay; assay type: functional, cell-based
L5178Y [4] = experiment: Antiproliferative activity against multidrug resistant mouse L5178Y cells expressing ABCB1 assessed as inhibition of cell growth incubated for 72 hrs by MTT assay; assay type: functional, cell-based
L5178Y [5] = experiment: Synergistic antiproliferative activity against multidrug resistant mouse L5178Y cells expressing ABCB1 assessed as combination index at 150 uM incubated for 72 hrs in presence of doxorubicin at 17.242 uM by checkerboard assay; assay type: functional
L5178Y [6] = experiment: Synergistic antiproliferative activity against multidrug resistant mouse L5178Y cells expressing ABCB1 assessed as combination index at 200 uM incubated for 72 hrs in presence of doxorubicin at 17.242 uM by checkerboard assay; assay type: functional
[7] = Cytotoxicity against human HuT 102 cells assessed as inhibition of cell growth incubated for 72 hrs by MTS assay; assay type: functional, cell-based; conditions: HuT-102, 72 h
[8] = Cytotoxicity against human skin fibroblast cells assessed as inhibition of cell growth incubated for 72 hrs by MTS assay; assay type: toxicity, cell-based
Jurkat [9] = experiment: Induction of cell cycle arrest in human Jurkat cells assessed as reduction in cyclin D1 gene expression at 50 uM incubated for 24 hrs by qPCR analysis; assay type: functional, cell-based
Jurkat [10] = experiment: Induction of cell cycle arrest in human Jurkat cells assessed as reduction in cyclin E1 gene expression at 50 uM incubated for 24 hrs by qPCR analysis; assay type: functional, cell-based
Jurkat [11] = experiment: Induction of cell cycle arrest in human Jurkat cells assessed as increase in p53 gene expression at 50 uM incubated for 24 hrs by qPCR analysis; assay type: functional, cell-based
Jurkat [12] = experiment: Induction of cell cycle arrest in human Jurkat cells assessed as increase in p21 gene expression at 50 uM incubated for 24 hrs by qPCR analysis; assay type: functional, cell-based
Jurkat [13] = experiment: Synergistic induction of cell cycle arrest in human Jurkat cells assessed as increase in p53 gene expression at 50 uM incubated for 24 hrs in presence of doxorubicin at 50 nM by qPCR analysis; assay type: functional, cell-based
Jurkat [14] = experiment: Synergistic induction of cell cycle arrest in human Jurkat cells assessed as increase in p21 gene expression at 50 uM incubated for 24 hrs in presence of doxorubicin at 50 nM by qPCR analysis; assay type: functional, cell-based
L5178Y [15] = experiment: Synergistic antiproliferative activity against multidrug resistant mouse L5178Y cells expressing ABCB1 assessed as combination index at 50 uM incubated for 72 hrs in presence of doxorubicin at 17.242 uM by checkerboard assay; assay type: functional
L5178Y [16] = experiment: Synergistic antiproliferative activity against multidrug resistant mouse L5178Y cells expressing ABCB1 assessed as combination index at 100 uM incubated for 72 hrs in presence of doxorubicin at 17.242 uM by checkerboard assay; assay type: functional
Jurkat [17] = experiment: Synergistic induction of cell cycle arrest in human Jurkat cells assessed as reduction in cyclin D1 gene expression at 50 uM incubated for 24 hrs in presence of doxorubicin at 50 nM by qPCR analysis; assay type: functional, cell-based
Jurkat [18] = experiment: Synergistic induction of cell cycle arrest in human Jurkat cells assessed as reduction in cyclin E1 gene expression at 50 uM incubated for 24 hrs in presence of doxorubicin at 50 nM by qPCR analysis; assay type: functional, cell-based
Jurkat [19] = experiment: Induction of cell cycle arrest in human Jurkat cells assessed as increase in p53 transcription at 50 uM incubated for 24 hrs by qPCR analysis; assay type: functional, cell-based
Jurkat [20] = experiment: Induction of cell cycle arrest in human Jurkat cells assessed as increase in p21 transcription at 50 uM incubated for 24 hrs by qPCR analysis; assay type: functional, cell-based

Row | SMILES | IC50 (L5178Y [1]) | IC50 (L5178Y [2]) | IC50 (L5178Y [3]) | IC50 (L5178Y [4]) | other results
1 | CCCC(SCc1ccccc1)c1nc(N)nc(N2CCN(C)CC2)n1.Cl (stereo unspecified) | 36 µM | 54.6 µM | 24.2 µM | 23.5 µM | CI (L5178Y [5]): 0.142
2 | CN1CCN(c2nc(N)nc(CCCSCc3ccccc3)n2)CC1 | 27.7 µM | 61.3 µM | 38.8 µM | 51.5 µM | –
3 | CN1CCN(c2nc(N)nc(CCCSc3ccccc3)n2)CC1.Cl | 30.1 µM | 52 µM | 34.1 µM | 28.6 µM | CI (L5178Y [5]): 0.199
4 | CCCCC(Sc1ccc2ccccc2c1)c1nc(N)nc(N2CCN(C)CC2)n1 (stereo unspecified) | 23.2 µM | 45.2 µM | 36.4 µM | 35.5 µM | –
5 | CCC(Sc1ccccc1)c1nc(N)nc(N2CCN(C)CC2)n1.Cl (stereo unspecified) | 54.4 µM | 81.5 µM | 58 µM | 47 µM | CI (L5178Y [6]): 0.127
6 | CCC(SCc1ccccc1)c1nc(N)nc(N2CCN(C)CC2)n1 (stereo unspecified) | 59.2 µM | > 100 µM | 83 µM | 67.3 µM | –
7 | CN1CCN(c2nc(N)nc(C(C)(C)Sc3ccc4ccccc4c3)n2)CC1 | 24.8 µM | 29 µM | 26.4 µM | 38.5 µM | –
8 | COc1cccc2c1C(=O)c1c(O)c3c(c(O)c1C2=O)C[C@@](O)(C(=O)CO)C[C@@H]3O[C@H]1C[C@H](N)[C@H](O)[C@H](C)O1 [DOXORUBICIN] | 0.7 µM | 2.14 µM | 0.28 µM | 1.75 µM | –
9 | CC(SCc1ccccc1)c1nc(N)nc(N2CCN(C)CC2)n1 (stereo unspecified) | 91.8 µM | > 100 µM | > 100 µM | 92.4 µM | –
10 | CCC([Se]Cc1ccccc1)c1nc(N)nc(N2CCN(C)CC2)n1 (stereo unspecified) | 8.66 µM | 25.3 µM | 10.7 µM | 11.8 µM | IC50 [7]: 44.3 µM; IC50 at 72 h [8]: > 100 µM; Activity (Jurkat [9]): Active; Activity (Jurkat [10]): Active; Activity (Jurkat [11]): Active; Activity (Jurkat [12]): Active; Activity (Jurkat [13]): Active; Activity (Jurkat [14]): Active
11 | CN1CCN(c2nc(N)nc(C(C)(C)Sc3cccc4ccccc34)n2)CC1 | 14.8 µM | 23.4 µM | 19.9 µM | 24.7 µM | –
12 | CCCCC(Sc1ccccc1)c1nc(N)nc(N2CCN(C)CC2)n1.Cl (stereo unspecified) | 15.5 µM | 21.6 µM | 20.6 µM | 17.4 µM | CI (L5178Y [15]): 0.148
13 | CN1CCN(c2nc(N)nc(CSc3ccccc3)n2)CC1 | > 100 µM | > 100 µM | > 100 µM | 79.9 µM | –
14 | CCC(Sc1cccc2ccccc12)c1nc(N)nc(N2CCN(C)CC2)n1 (stereo unspecified) | 22.6 µM | 30.3 µM | 28.2 µM | 31.1 µM | –
15 | CN1CCN(c2nc(N)nc(CSc3ccc4ccccc4c3)n2)CC1.Cl | 27.1 µM | 36.6 µM | 19 µM | 13.5 µM | CI (L5178Y [16]): 0.415
16 | CN1CCN(c2nc(N)nc(CCSc3ccccc3)n2)CC1 | 60.8 µM | 67 µM | 54.5 µM | 33.8 µM | –
17 | CN1CCN(c2nc(N)nc(CCC[Se]c3ccccc3)n2)CC1.Cl | 33.4 µM | 42.2 µM | 13.3 µM | 11.6 µM | CI (L5178Y [16]): 0.309; IC50 [7]: 62 µM; IC50 at 72 h [8]: > 100 µM; Activity (Jurkat [9]): Active; Activity (Jurkat [10]): Active; Activity (Jurkat [17]): Active; Activity (Jurkat [18]): Active
18 | CN1CCN(c2nc(N)nc(C[Se]Cc3ccccc3)n2)CC1 | > 100 µM | > 100 µM | 45.6 µM | 22.7 µM | –
19 | CCC(Sc1ccc2ccccc2c1)c1nc(N)nc(N2CCN(C)CC2)n1 (stereo unspecified) | 17.8 µM | 30.4 µM | 21.2 µM | 27.5 µM | –
20 | CCCC(Sc1ccccc1)c1nc(N)nc(N2CCN(C)CC2)n1.Cl (stereo unspecified) | 15 µM | 21.2 µM | 15.5 µM | 16.6 µM | CI (L5178Y [15]): 0.044; IC50 [7]: 58.2 µM; IC50 at 72 h [8]: > 100 µM; Activity (Jurkat [9]): inactive; Activity (Jurkat [10]): Active; Activity (Jurkat [19]): Active; Activity (Jurkat [20]): Active; Activity (Jurkat [18]): Active
21 | CN1CCN(c2nc(N)nc(C(C)(C)Sc3ccccc3)n2)CC1.Cl | 68.8 µM | 83.9 µM | 65.2 µM | 53 µM | CI (L5178Y [6]): 0.41
22 | CN1CCN(c2nc(N)nc(CCSCc3ccccc3)n2)CC1.Cl | 82.4 µM | 70.9 µM | 38.6 µM | 32.2 µM | CI (L5178Y [6]): 0.323
23 | CC(Sc1ccccc1)c1nc(N)nc(N2CCN(C)CC2)n1 (stereo unspecified) | > 100 µM | > 100 µM | > 100 µM | 68.7 µM | –
24 | CN1CCN(c2nc(N)nc(CCC[Se]Cc3ccccc3)n2)CC1 | 32 µM | 57.4 µM | 30.8 µM | 38.6 µM | –
25 | CC(Sc1ccc2ccccc2c1)c1nc(N)nc(N2CCN(C)CC2)n1 (stereo unspecified) | 18.4 µM | 28.1 µM | 21.3 µM | 18.6 µM | –
26 | CCCCC(SCc1ccccc1)c1nc(N)nc(N2CCN(C)CC2)n1 (stereo unspecified) | 19.7 µM | 30.6 µM | 25.8 µM | 28.1 µM | –
27 | CCCC(Sc1ccc2ccccc2c1)c1nc(N)nc(N2CCN(C)CC2)n1 (stereo unspecified) | 23.9 µM | 53.2 µM | 43.3 µM | 42.7 µM | –
28 | CN1CCN(c2nc(N)nc(CSCc3ccccc3)n2)CC1 | > 100 µM | > 100 µM | 57.2 µM | 37.2 µM | –
29 | CC(Sc1cccc2ccccc12)c1nc(N)nc(N2CCN(C)CC2)n1 (stereo unspecified) | 15.5 µM | 32.4 µM | 23.3 µM | 32.8 µM | –
